# Measurements reported in patent publication US11414377B2, “Modulator of metabotropic and ionotropic transmembrane receptors and use thereof” (IBD THERAPEUTICS LLC, priority 2018, dated 2022).
# Tests used:
# TRPV1 ion channel = molecular target: T1, TRPV1 ion channel (Homo sapiens, UniProt Q8NER1); assay: Effect on activity of TRPV1 ion channel (Fluo-4 AM calcium); type: cell-based; settings: TRPV1 expressing CHO cells; Capsaicin 30 nM; intracellular calcium; read-out: IC50, blocker of TRPV1 ion channel
# T1 construct: expressed in transfected cells; host or cells: CHO cells
# Experimental: Compound I was dissolved in DMSO to a concentration of 100 mM; then the stock solution was serially diluted with DMSO to prepare a test solution with the concentration of substance equal to 50 μM. TRPV1 expressing CHO cells were used in the experiment. At the day of the experiment, the cells were incubated with a 4 μM of a solution of fluorescent indicator Fluo-4 AM. The cells after the preincubation with Capsaicin (30 nM), the known agonist of […] ion channel, were incubated with the test compound. The activity of receptors was determined by the intracellular calcium concentration using fluorescence spectroscopy (Behrendt, H. J. et al. (2004), Br. J. Pharmacol., 141: 737-745. FINAL).
# [1] = tested on: guinea pigs of Agouti line; assay: Capsaicin cough model in guinea pigs, inhalation administration; type: in vivo
# human NK2R = molecular target: T2, human NK2R (Homo sapiens, UniProt P21452); assay: Effect on activity of tachykinin receptor type 2 (intracellular calcium, fluorescence); type: cell-based; settings: CHO cells expressing human NK2R, agonist [Nleu10]-NKA-(4-10) 10 nM, read-out: IC50, antagonist of tachykinin receptor type 2
# T2 construct: expressed in transfected cells; host or cells: CHO cells
# T2 sequence (P21452 1-398): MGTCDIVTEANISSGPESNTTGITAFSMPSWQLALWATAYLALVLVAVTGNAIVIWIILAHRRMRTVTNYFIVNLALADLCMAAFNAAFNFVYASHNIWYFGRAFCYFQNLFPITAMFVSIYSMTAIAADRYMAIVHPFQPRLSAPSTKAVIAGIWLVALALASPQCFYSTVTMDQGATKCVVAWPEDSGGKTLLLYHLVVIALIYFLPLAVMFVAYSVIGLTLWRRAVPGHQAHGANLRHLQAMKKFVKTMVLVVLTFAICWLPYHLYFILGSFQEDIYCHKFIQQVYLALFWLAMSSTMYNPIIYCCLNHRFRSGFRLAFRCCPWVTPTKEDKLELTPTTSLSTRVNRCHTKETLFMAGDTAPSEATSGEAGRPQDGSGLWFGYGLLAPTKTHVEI
# Experimental: Compound I was dissolved in DMSO to a concentration of 100 mM; then the stock solution was serially diluted with DMSO. The maximal start concentration of substance is […]. The effect was determined at 8 concentrations of test compound, each concentration was investigated twice. CHO cells expressing human NK2R were used in the experiment, said cells after the preincubation with an agonist [Nleu10]-NKA-(4-10) (10 nM) were incubated with the test compound. The activity of receptors was determined by the intracellular calcium concentration using fluorescence spectroscopy (Biochem Biophys Res Commun. 1994 May 16; 200(3):1512-20).
# balb/c male mice = assay: Acute pain response model, administration of mustard oil in mice; type: in vivo
# Experimental: The study of the activity of the compound on the acute pain response model was conducted using a standard procedure (Laird M. A., Martinez-Caro L., Garcia-Nicas E., Cervero F. A new model of visceral pain and referred hyperalgesia in the mouse//J. Pain 92 (2001). P. 335-342).
# The study was carried out on balb/c male mice, the individual weight of which deviates from the mean value within the sex of no more than ±10%. First, the mice were lightly anesthetized (after 24 hours of fasting). Then 1% solution of mustard oil in physiological solution was introduced to the animals at 4 cm in depth with the help of catheter 3.5 F. The solvent was introduced to the healthy control. 5 minutes after the introduction of the mustard oil, the presence of pain in the animal (a number of abdominal lickings, abdominal wall abductions, lower abdominal deformity to the floor, abdominal distension) was evaluated during the first 20 minutes. Compound I was administered once intragastrically 1 hour before the administration of mustard oil. The obtained data were checked using the Grubb's test for the presence of the largest or smallest abnormal observation (ejection) in the sample. Values determined “to be eliminated” in this test were not used for further assay. For all data, descriptive statistics was used: a mean value (M) and standard error of the mean value (m) were counted up. The normality of distribution of the values obtained in the course of the experiment was checked with the aid of the Kolmogorov-Smirnov test. In the case of normal distribution, Student's t-test (t-test) was used to evaluate the inter-group distinctions. In the case of the distribution that is other than the normal one the Kruskall-Wallis test (with Dann's post hoc test) was used for the comparison of several groups. Distinctions were determined at 5% at a level of confidence.
# kappa opioid receptor = kappa opioid receptor (Homo sapiens, UniProt P41145); assay: Kappa-opioid receptor radioligand displacement ([3H]U69593); type: binding
# male and female rats = assay: Acute toxicity at single administration, rats; type: in vivo; settings: for Body weight gain / Death of animals: male and female; for Death of animals: 14 days observation
# Experimental: The acute toxicity study was performed on 24 male and 24 female rats, and also on 24 male and 24 female mice. Before the administration of the Compound I, the body weight of the animals was recorded, after 1 hour of the administration, the state of the experimental animals was observed. Then, the body weights of rats and mice were recorded daily for 14 days after the administration of the substance, and the examination was carried out to detect the cases of death and abnormality in the state of the animals.
# Compound I was administered to rats and mice intragastrically at a dose of 5000 mg/kg, intraperitoneally—at a dose of 2000 mg/kg. Control groups (female and male objects) were received a solvent (0.1% Tween-80 solution in water).
# [2] = molecular target: recombinant human delta opioid receptor (Homo sapiens, UniProt P41143); assay: Delta-opioid receptor radioligand displacement ([3H]DADLE); type: binding
# Chain of recombinant human delta opioid receptor (P41143 whole entry): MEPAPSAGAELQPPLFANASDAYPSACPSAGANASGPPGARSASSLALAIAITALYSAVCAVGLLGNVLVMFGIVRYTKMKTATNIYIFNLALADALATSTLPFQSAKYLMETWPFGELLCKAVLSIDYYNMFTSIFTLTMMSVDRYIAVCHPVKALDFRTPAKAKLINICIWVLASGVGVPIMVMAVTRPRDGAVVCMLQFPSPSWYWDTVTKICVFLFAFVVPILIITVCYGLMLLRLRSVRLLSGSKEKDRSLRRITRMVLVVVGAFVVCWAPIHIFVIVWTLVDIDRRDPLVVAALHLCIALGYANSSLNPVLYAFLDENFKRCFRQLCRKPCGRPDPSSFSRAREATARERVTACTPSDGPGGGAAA
# Chain of kappa opioid receptor (P41145 whole entry): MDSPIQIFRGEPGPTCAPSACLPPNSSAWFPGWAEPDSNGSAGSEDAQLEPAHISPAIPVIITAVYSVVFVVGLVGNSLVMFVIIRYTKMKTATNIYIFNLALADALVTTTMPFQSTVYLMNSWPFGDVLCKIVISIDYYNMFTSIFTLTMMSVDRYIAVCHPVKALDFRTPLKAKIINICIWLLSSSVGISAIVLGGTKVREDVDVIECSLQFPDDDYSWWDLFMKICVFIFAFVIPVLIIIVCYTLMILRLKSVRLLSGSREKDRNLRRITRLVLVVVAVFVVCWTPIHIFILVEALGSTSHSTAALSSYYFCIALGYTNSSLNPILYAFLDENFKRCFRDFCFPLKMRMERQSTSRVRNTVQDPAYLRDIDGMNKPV
# T1 sequence (Q8NER1 whole entry): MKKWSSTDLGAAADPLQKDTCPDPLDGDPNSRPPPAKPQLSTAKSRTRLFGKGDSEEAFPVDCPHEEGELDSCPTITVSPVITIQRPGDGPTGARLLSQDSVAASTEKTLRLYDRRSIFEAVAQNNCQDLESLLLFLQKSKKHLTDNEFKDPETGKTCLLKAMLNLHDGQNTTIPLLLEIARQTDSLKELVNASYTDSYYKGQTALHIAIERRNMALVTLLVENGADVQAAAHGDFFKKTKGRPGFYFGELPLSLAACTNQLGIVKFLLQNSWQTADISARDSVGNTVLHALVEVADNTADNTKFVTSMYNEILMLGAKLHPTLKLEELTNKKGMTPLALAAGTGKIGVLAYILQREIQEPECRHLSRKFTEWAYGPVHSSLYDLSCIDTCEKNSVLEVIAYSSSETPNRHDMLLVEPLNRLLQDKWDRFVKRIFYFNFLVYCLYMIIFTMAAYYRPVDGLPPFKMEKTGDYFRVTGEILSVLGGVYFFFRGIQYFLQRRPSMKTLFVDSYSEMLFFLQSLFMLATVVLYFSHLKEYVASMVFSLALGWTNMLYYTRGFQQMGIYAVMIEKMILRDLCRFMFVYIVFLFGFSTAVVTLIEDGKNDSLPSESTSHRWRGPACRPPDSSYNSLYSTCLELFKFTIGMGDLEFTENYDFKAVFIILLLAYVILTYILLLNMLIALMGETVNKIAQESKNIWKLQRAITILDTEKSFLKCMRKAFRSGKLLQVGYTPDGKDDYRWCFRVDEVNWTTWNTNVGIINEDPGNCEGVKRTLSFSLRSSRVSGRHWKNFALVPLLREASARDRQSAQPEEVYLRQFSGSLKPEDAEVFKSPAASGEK
smiles,measurement,setting,value
"O=C(Cc1ccc(O)cc1)N[C@@H](Cc1ccccc1)C(=O)NCCc1ccccc1 [Compound I, 2-phenylethylamide N-(p-hydroxyphenylacetyl)phenylalanine]",IC50,TRPV1 ion channel,51 µM
same,Suppression of cough (% from the control),[1]; 0.25 mg/kg by inhalation 15 minutes before capsaicin,46.7%
same,A number of cough attacks for 15 minutes from the start of inhalation (test),"[1]; 0.25 mg/kg by inhalation 15 minutes before capsaicin 30 μM, control 15.2 ± 0.8",8.1 ± 0.2*&
same,IC50,human NK2R,6.4 µM
same,"Number of pain sensations, 0-20 min","balb/c male mice; 15 mg/kg once intragastrically 1 hour prior to mustard oil, control 10.4 ± 1.59, intact 2.2 ± 0.33",2.56 ± 0.78 &
same,"Number of pain sensations, 0-20 min","balb/c male mice; 1.5 once intragastrically 1 hour prior to mustard oil, control 10.4 ± 1.59",14.8 ± 3.01
same,"Number of pain sensations, 0-20 min","balb/c male mice; 3 once intragastrically 1 hour prior to mustard oil, control 10.4 ± 1.59",8.56 ± 0.94
same,"Number of pain sensations, 0-20 min","balb/c male mice; 7.5 once intragastrically 1 hour prior to mustard oil, control 10.4 ± 1.59",15.1 ± 1.7
same,IC50,kappa opioid receptor,7.1 µM
same,"Differences in the spontaneous behaviour, responses to the caused reactions","male and female rats; intragastrically 5000 mg/kg, intraperitoneally 2000 mg/kg",not observed
same,Body weight gain,male and female rats; intragastrically 5000 mg/kg,lag in body weight gain
same,Death of animals,male and female rats; intragastrically 5000 mg/kg,did not cause death of animals
same,Body weight gain,male and female rats; intraperitoneally 2000 mg/kg,lag in body weight gain
same,Death of animals,male and female rats; intraperitoneally 2000 mg/kg,did not cause death of animals
same,IC50,[2],64 µM
